Test results from ChEMBL document CHEMBL1137200, “Discovery of a Subnanomolar helical D-tridecapeptide inhibitor of gamma-secretase” (J Med Chem, 2004).

The molecules below were run against Gamma-secretase (assay: Inhibitory activity against Gamma-secretase in detergent-solubilized HeLa cell membranes with recombinant APP-based substrate).

SMILES | IC50 [nM]
CC[C@H](C)[C@H](NC(=O)[C@@H](NC(=O)[C@@H](NC(=O)C(C)(C)NC(=O)CNC(=O)[C@@H](NC(=O)C(C)(C)NC(=O)OC(C)(C)C)C(C)C)C(C)C)C(C)C)C(=O)NC(C)(C)C(=O)N[C@H](C(=O)N[C@H](C(=O)NC(C)(C)C(=O)N[C@H](C(=O)N[C@H](C(=O)NC(C)(C)C(=O)OC)[C@@H](C)CC)C(C)C)C(C)C)[C@@H](C)OCc1ccccc1 | 910
CC[C@H](C)[C@H](NC(=O)[C@@H](NC(=O)[C@@H](NC(=O)C(C)(C)NC(=O)OC(C)(C)C)C(C)C)C(C)C)C(=O)NC(C)(C)C(=O)N[C@H](C(=O)N[C@H](C(=O)NC(C)(C)C(=O)N[C@H](C(=O)N[C@H](C(=O)NC(C)(C)C(=O)OC)[C@@H](C)CC)C(C)C)C(C)C)[C@@H](C)OCc1ccccc1 | 3100
CC[C@H](C)[C@H](NC(=O)[C@@H](NC(=O)[C@@H](NC(=O)OC(C)(C)C)C(C)C)C(C)C)C(=O)NC(C)(C)C(=O)N[C@H](C(=O)N[C@H](C(=O)NC(C)(C)C(=O)N[C@H](C(=O)N[C@H](C(=O)NC(C)(C)C(=O)OC)[C@@H](C)CC)C(C)C)C(C)C)[C@@H](C)OCc1ccccc1 | 10000
CC[C@H](C)[C@H](NC(=O)[C@@H](NC(=O)[C@@H](NC(=O)C(C)(C)NC(=O)CNC(=O)[C@@H](NC(=O)OC(C)(C)C)C(C)C)C(C)C)C(C)C)C(=O)NC(C)(C)C(=O)N[C@H](C(=O)N[C@H](C(=O)NC(C)(C)C(=O)OC)C(C)C)[C@@H](C)OCc1ccccc1 | 30000
CC[C@H](C)[C@H](NC(=O)[C@@H](NC(=O)[C@@H](NC(=O)C(C)(C)NC(=O)CNC(=O)[C@@H](NC(=O)C(C)(C)NC(=O)[C@H](CC(C)C)NC(=O)CNC(=O)OC(C)(C)C)C(C)C)C(C)C)C(C)C)C(=O)NC(C)(C)C(=O)N[C@H](C(=O)N[C@H](C(=O)NC(C)(C)C(=O)N[C@H](C(=O)N[C@H](C(=O)NC(C)(C)C(=O)OC)[C@@H](C)CC)C(C)C)C(C)C)[C@@H](C)OCc1ccccc1 | 11000
CC[C@H](C)[C@H](NC(=O)[C@@H](NC(=O)[C@@H](NC(=O)C(C)(C)NC(=O)CNC(=O)[C@@H](NC(=O)C(C)(C)NC(=O)[C@H](CC(C)C)NC(=O)OC(C)(C)C)C(C)C)C(C)C)C(C)C)C(=O)NC(C)(C)C(=O)N[C@H](C(=O)N[C@H](C(=O)NC(C)(C)C(=O)N[C@H](C(=O)N[C@H](C(=O)NC(C)(C)C(=O)OC)[C@@H](C)CC)C(C)C)C(C)C)[C@@H](C)OCc1ccccc1 | 4700
CC[C@H](C)[C@H](NC(=O)[C@@H](NC(=O)[C@@H](NC(=O)C(C)(C)NC(=O)CNC(=O)[C@@H](NC(=O)OC(C)(C)C)C(C)C)C(C)C)C(C)C)C(=O)NC(C)(C)C(=O)N[C@H](C(=O)N[C@H](C(=O)NC(C)(C)C(=O)N[C@H](C(=O)N[C@H](C(=O)NC(C)(C)C(=O)OC)[C@@H](C)CC)C(C)C)C(C)C)[C@@H](C)OCc1ccccc1 | 780

These reach a lower IC50. Values come first.

IC50 [nM] | SMILES
0.14 | CC[C@@H](C)[C@@H](NC(=O)[C@H](NC(=O)[C@H](NC(=O)C(C)(C)NC(=O)CNC(=O)[C@H](NC(=O)OC(C)(C)C)C(C)C)C(C)C)C(C)C)C(=O)NC(C)(C)C(=O)N[C@@H](C(=O)N[C@@H](C(=O)NC(C)(C)C(=O)N[C@@H](C(=O)N[C@@H](C(=O)NC(C)(C)C(=O)OC)[C@H](C)CC)C(C)C)C(C)C)[C@H](C)OCc1ccccc1
12 | CC[C@@H](C)[C@@H](NC(=O)[C@H](NC(=O)[C@H](NC(=O)C(C)(C)NC(=O)CNC(=O)OC(C)(C)C)C(C)C)C(C)C)C(=O)NC(C)(C)C(=O)N[C@@H](C(=O)N[C@@H](C(=O)NC(C)(C)C(=O)N[C@@H](C(=O)N[C@@H](C(=O)NC(C)(C)C(=O)OC)[C@H](C)CC)C(C)C)C(C)C)[C@H](C)OCc1ccccc1
14 | CC[C@@H](C)[C@@H](NC(=O)[C@H](NC(=O)[C@H](NC(=O)C(C)(C)NC(=O)CNC(=O)[C@H](NC(=O)C(C)(C)NC(=O)OC(C)(C)C)C(C)C)C(C)C)C(C)C)C(=O)NC(C)(C)C(=O)N[C@@H](C(=O)N[C@@H](C(=O)NC(C)(C)C(=O)N[C@@H](C(=O)N[C@@H](C(=O)NC(C)(C)C(=O)OC)[C@H](C)CC)C(C)C)C(C)C)[C@H](C)OCc1ccccc1
16 | CC[C@@H](C)[C@@H](NC(=O)[C@H](NC(=O)[C@H](NC(=O)C(C)(C)NC(=O)CNC(=O)[C@H](NC(=O)C(C)(C)NC(=O)[C@@H](CC(C)C)NC(=O)OC(C)(C)C)C(C)C)C(C)C)C(C)C)C(=O)NC(C)(C)C(=O)N[C@@H](C(=O)N[C@@H](C(=O)NC(C)(C)C(=O)N[C@@H](C(=O)N[C@@H](C(=O)NC(C)(C)C(=O)OC)[C@H](C)CC)C(C)C)C(C)C)[C@H](C)OCc1ccccc1
28 | CC[C@@H](C)[C@@H](NC(=O)[C@H](NC(=O)[C@H](NC(=O)C(C)(C)NC(=O)OC(C)(C)C)C(C)C)C(C)C)C(=O)NC(C)(C)C(=O)N[C@@H](C(=O)N[C@@H](C(=O)NC(C)(C)C(=O)N[C@@H](C(=O)N[C@@H](C(=O)NC(C)(C)C(=O)OC)[C@H](C)CC)C(C)C)C(C)C)[C@H](C)OCc1ccccc1 (single isomer, unassigned)
26 | CC[C@@H](C)[C@@H](NC(=O)[C@H](NC(=O)[C@H](NC(=O)C(C)(C)NC(=O)CNC(=O)[C@H](NC(=O)C(C)(C)NC(=O)[C@@H](CC(C)C)NC(=O)CNC(=O)OC(C)(C)C)C(C)C)C(C)C)C(C)C)C(=O)NC(C)(C)C(=O)N[C@@H](C(=O)N[C@@H](C(=O)NC(C)(C)C(=O)N[C@@H](C(=O)N[C@@H](C(=O)NC(C)(C)C(=O)OC)[C@H](C)CC)C(C)C)C(C)C)[C@H](C)OCc1ccccc1
360 | CC[C@H](C)[C@H](NC(=O)[C@@H](NC(=O)[C@@H](NC(=O)C(C)(C)NC(=O)CNC(=O)OC(C)(C)C)C(C)C)C(C)C)C(=O)NC(C)(C)C(=O)N[C@H](C(=O)N[C@H](C(=O)NC(C)(C)C(=O)N[C@H](C(=O)N[C@H](C(=O)NC(C)(C)C(=O)OC)[C@@H](C)CC)C(C)C)C(C)C)[C@@H](C)OCc1ccccc1
90 | CC[C@@H](C)[C@@H](NC(=O)[C@H](NC(=O)[C@H](NC(=O)C(C)(C)NC(=O)CNC(=O)[C@H](NC(=O)OC(C)(C)C)C(C)C)C(C)C)C(C)C)C(=O)NC(C)(C)C(=O)N[C@@H](C(=O)N[C@@H](C(=O)NC(C)(C)C(=O)OC)C(C)C)[C@H](C)OCc1ccccc1
25 | CC[C@@H](C)[C@@H](NC(=O)[C@H](NC(=O)[C@H](NC(=O)OC(C)(C)C)C(C)C)C(C)C)C(=O)NC(C)(C)C(=O)N[C@@H](C(=O)N[C@@H](C(=O)NC(C)(C)C(=O)N[C@@H](C(=O)N[C@@H](C(=O)NC(C)(C)C(=O)OC)[C@H](C)CC)C(C)C)C(C)C)[C@H](C)OCc1ccccc1

These molecules were tested against Gamma-secretase (assay: Inhibitory activity against Gamma-secretase from APP-transfected CHO cells).
Assay type: functional, cell-based, Homo sapiens

IC50 [nM] | SMILES
9 | CC[C@@H](C)[C@@H](NC(=O)[C@H](NC(=O)[C@H](NC(=O)C(C)(C)NC(=O)CNC(=O)[C@H](NC(=O)OC(C)(C)C)C(C)C)C(C)C)C(C)C)C(=O)NC(C)(C)C(=O)N[C@@H](C(=O)N[C@@H](C(=O)NC(C)(C)C(=O)N[C@@H](C(=O)N[C@@H](C(=O)NC(C)(C)C(=O)OC)[C@H](C)CC)C(C)C)C(C)C)[C@H](C)OCc1ccccc1
